In ChEMBL document CHEMBL4602613, “Early identification of promiscuous attributes of aldose reductase inhibitors using a DMSO-perturbation assay” (Bioorg Med Chem Lett, 2020):

Assays:
[1] = biological target: T1, Aldo-keto reductase family 1 member B1 (Homo sapiens, UniProt P15121); assay: Inhibition of human recombinant AKR1B1 assessed as D,L-glyceraldehyde reduction at 100 uM incubated in sodium phosphate buffer at pH 6.2 in presence of NADPH relative to control
[2] = biological target: T2, Aldo-keto reductase family 1 member B10 (Homo sapiens, UniProt O60218); assay: Inhibition of AKR1B10 (unknown origin) pretreated with 0.42M DMSO followed by compound treatment by DMSO-perturbation assay
[3] = biological target: T2, Aldo-keto reductase family 1 member B10; assay: Inhibition of AKR1B10 (unknown origin) pretreated with 0.25M DMSO followed by compound treatment by DMSO-perturbation assay
[4] = biological target: T1, Aldo-keto reductase family 1 member B1; assay: Aggregation-based inhibition of human recombinant AKR1B1 assessed as D,L-glyceraldehyde reduction incubated in sodium phosphate buffer at pH 6.2 in presence of NADPH and 0.05% Triton X-100 by detergent-addition assay
[5] = biological target: T1, Aldo-keto reductase family 1 member B1; assay: Inhibition of human recombinant AKR1B1 assessed as D,L-glyceraldehyde reduction incubated in sodium phosphate buffer at pH 6.2 in presence of NADPH
[6] = biological target: T1, Aldo-keto reductase family 1 member B1; assay: Inhibition of human recombinant AKR1B1 assessed as D,L-glyceraldehyde reduction pretreated with 0.7M DMSO followed by compound addition by DMSO-perturbation assay
[7] = biological target: T1, Aldo-keto reductase family 1 member B1; assay: Inhibition of human recombinant AKR1B1 assessed as D,L-glyceraldehyde reduction pretreated with 0.3M DMSO followed by compound addition by DMSO-perturbation assay
[8] = biological target: T1, Aldo-keto reductase family 1 member B1; assay: Ratio of IC50 for human recombinant AKR1B1 in presence of 0.7M DMSO to IC50 for human recombinant AKR1B1 in presence of 0.3M DMSO by DMSO-perturbation assay
[9] = biological target: T1, Aldo-keto reductase family 1 member B1; assay: Aggregation-based inhibition of human recombinant AKR1B1 assessed as D,L-glyceraldehyde reduction at 300 uM incubated in sodium phosphate buffer at pH 6.2 in presence of NADPH and 0.05% Triton X-100 by detergent-addition assay

T2 sequence (O60218 whole entry): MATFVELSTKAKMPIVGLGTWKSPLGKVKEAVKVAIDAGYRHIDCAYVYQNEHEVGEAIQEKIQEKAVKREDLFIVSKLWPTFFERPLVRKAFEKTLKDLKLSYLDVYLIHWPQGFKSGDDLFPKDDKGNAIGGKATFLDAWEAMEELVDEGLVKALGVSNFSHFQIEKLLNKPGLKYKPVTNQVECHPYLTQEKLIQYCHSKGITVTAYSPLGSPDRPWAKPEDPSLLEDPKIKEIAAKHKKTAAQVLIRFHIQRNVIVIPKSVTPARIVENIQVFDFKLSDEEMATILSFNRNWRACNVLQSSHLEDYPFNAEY

Row | Structure (SMILES) | inhibition [1] | IC50 [4] | IC50 ([5]; read-out: IC50) | further results
1 | COc1ccc2c(c1)OC(=O)NC2(C)C(N)=O (stereo not given) | 12% |  |  | 
2 | CC(/C=C1\SC(=S)N(CC(=O)O)C1=O)=C\c1ccccc1 |  |  |  | IC50 [2]: 0.0393 µM; IC50 [3]: 0.0352 µM
3 | CC(=O)CC[C@@H]1[C@H]2CC(=C(C)C)C(=O)C[C@@]12C | 3% |  |  | 
4 | COc1ccc(C2(C)NC(=O)NC2=O)c(O)c1 (stereo not given) | 31% | 433 µM | 295 µM | 
5 | O=C1NC(=O)C(c2ccccc2)(c2ccc(O)cc2)N1 (stereo not given) | 71% | 47.9 µM | 40.6 µM | IC50 [6]: 64.2 µM; IC50 [7]: 40.6 µM
6 | O=C1NC(=O)C(c2ccccc2)N1 (stereo not given) | 34% |  |  | 
7 | COc1ccc(C(C)=O)c(O)c1 | 2% |  |  | 
8 | O=C1NC(=O)C2(CCCc3ccccc32)N1 (stereo not given) | 56% | 114 µM | 80.1 µM | 
9 | Cn1cnc2c1c(=O)n(CCCCC1(C)NC(=O)NC1=O)c(=O)n2C (stereo not given) | 56% | 71.9 µM | 65.6 µM | IC50 [6]: 178 µM; IC50 [7]: 65.6 µM; Ratio IC50 [8]: 2.7
10 | CCCCC[C@H](O)CC(=O)CCc1ccc(O)c(OC)c1 [GINGEROL] | 4% |  |  | IC50 [5]: Not Active
11 | CCCCCCCCC[C@H](O)CC(=O)CCc1ccc(O)c(OC)c1 | 45% |  | 126 µM | inhibition [9]: < 50%
12 | CCCC1NC(=O)NC1=O (stereo not given) | 19% |  |  | 
13 | CC1(CCc2ccccc2)NC(=O)NC1=O (stereo not given) | 39% | 319 µM | 160 µM | 
14 | CC(C)=C1C[C@@H]2[C@@H](CCC3(C)NC(=O)NC3=O)[C@]2(C)CC1=O (stereo not given in full) | 30% | 453 µM | 291 µM | 
